Assay results reported in PubChem BioAssay (NCI).
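Assay format: 96-well plates, 48-hour exposure. The concentration for full growth arrest is given as TGI.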

Assays:
Assay in all cases: NCI anticancer screen, dose series, 48 h
[1] = tested on: OVCAR-4 ovarian
[2] = tested on: UACC-62 melanoma
[3] = tested on: NCI/ADR-RES ovarian
[4] = tested on: DU-145 prostate
[5] = tested on: MCF7 breast
[6] = tested on: CAKI-1 renal
[7] = tested on: MALME-3M melanoma
[8] = tested on: LOX IMVI melanoma
[9] = tested on: OVCAR-3 ovarian
[10] = tested on: TK-10 renal
[11] = tested on: HOP-92 NSCLC
[12] = tested on: UO-31 renal
[13] = tested on: UACC-257 melanoma
[14] = tested on: BT-549 breast
[15] = tested on: SK-MEL-2 melanoma
[16] = tested on: NCI-H460 lung
[17] = tested on: A549 NSCLC
[18] = tested on: RPMI-8226 leukemia
[19] = tested on: HCC-2998 colon
[20] = tested on: HS 578T breast
[21] = tested on: SW-620 colon
[22] = tested on: MOLT-4 leukemia
[23] = tested on: SNB-75 CNS
[24] = tested on: HL-60(TB) leukemia
[25] = tested on: SF-268 CNS
[26] = tested on: SK-MEL-5 melanoma
[27] = tested on: KM12 colon
[28] = tested on: HCT-15 colon
[29] = tested on: NCI-H23 lung
[30] = tested on: ACHN renal
[31] = tested on: SK-MEL-28 melanoma
[32] = tested on: MDA-N
[33] = tested on: SK-OV-3 ovarian
[34] = tested on: M14 melanoma
[35] = tested on: MDA-MB-435
[36] = tested on: RXF 393 renal
[37] = tested on: SNB-19 CNS
[38] = tested on: K-562 leukemia
[39] = tested on: COLO 205 colon
[40] = tested on: HCT-116 colon
[41] = tested on: HOP-62 NSCLC
[42] = tested on: IGROV1 ovarian
[43] = tested on: PC-3 prostate
[44] = tested on: 786-0 renal
[45] = tested on: OVCAR-5 ovarian
[46] = tested on: SR leukemia
[47] = tested on: SN12C renal
[48] = tested on: SF-539 CNS
[49] = tested on: SF-295 CNS
[50] = tested on: U251 CNS
[51] = tested on: HT29 colon
[52] = tested on: MDA-MB-231 breast
[53] = tested on: NCI-H522 lung
[54] = tested on: NCI-H226 lung
[55] = tested on: CCRF-CEM leukemia
[56] = tested on: OVCAR-8 ovarian
[57] = tested on: EKVX NSCLC
[58] = tested on: A498 renal

CC(=O)OCC1OC(n2c3c(c(-c4ccco4)c(C#N)c2=S)CCC3)C(OC(C)=O)C(OC(C)=O)C1OC(C)=O (centres undefined)
TGI [1]: > 100 µM | TGI [2]: > 100 µM | TGI [3]: > 100 µM | TGI [4]: > 100 µM | TGI [5]: > 100 µM | TGI [6]: > 100 µM | TGI [7]: > 100 µM | TGI [8]: > 100 µM | TGI [9]: > 100 µM | TGI [10]: > 100 µM | TGI [11]: 69 µM | TGI [12]: > 100 µM | TGI [13]: > 100 µM | TGI [14]: > 100 µM | TGI [15]: > 100 µM | TGI [16]: > 100 µM | TGI [17]: > 100 µM | TGI [18]: > 100 µM | TGI [19]: > 100 µM | TGI [20]: > 100 µM | TGI [21]: > 100 µM | TGI [22]: 45.3 µM | TGI [23]: > 100 µM | TGI [24]: > 100 µM | TGI [25]: > 100 µM | TGI [26]: > 100 µM | TGI [27]: > 100 µM | TGI [28]: > 100 µM | TGI [29]: > 100 µM | TGI [30]: > 100 µM | TGI [31]: > 100 µM | TGI [32]: > 100 µM | TGI [33]: > 100 µM | TGI [34]: > 100 µM | TGI [35]: > 100 µM | TGI [36]: 86.9 µM | TGI [37]: > 100 µM | TGI [38]: > 100 µM | TGI [39]: > 100 µM | TGI [40]: > 100 µM | TGI [41]: > 100 µM | TGI [42]: > 100 µM | TGI [43]: > 100 µM | TGI [44]: > 100 µM | TGI [45]: > 100 µM | TGI [46]: > 100 µM | TGI [47]: > 100 µM | TGI [48]: > 100 µM | TGI [49]: > 100 µM | TGI [50]: > 100 µM | TGI [51]: > 100 µM

CSc1nc(-c2cc3c(c(SC)n2)CCCCC3)cc2c1CCCCC2
TGI [1]: > 100 µM | TGI [2]: > 100 µM | TGI [3]: > 100 µM | TGI [4]: > 100 µM | TGI [6]: > 100 µM | TGI [8]: > 100 µM | TGI [9]: > 100 µM | TGI [10]: > 100 µM | TGI [52]: > 100 µM | TGI [12]: > 100 µM | TGI [13]: > 100 µM | TGI [14]: > 100 µM | TGI [15]: > 100 µM | TGI [16]: > 100 µM | TGI [17]: > 100 µM | TGI [18]: > 100 µM | TGI [19]: > 100 µM | TGI [21]: > 100 µM | TGI [22]: > 100 µM | TGI [23]: > 100 µM | TGI [53]: 90.2 µM | TGI [54]: > 100 µM | TGI [24]: > 100 µM | TGI [25]: > 100 µM | TGI [55]: > 100 µM | TGI [26]: > 100 µM | TGI [27]: > 100 µM | TGI [28]: > 100 µM | TGI [29]: > 100 µM | TGI [30]: > 100 µM | TGI [31]: > 100 µM | TGI [32]: > 100 µM | TGI [33]: > 100 µM | TGI [34]: > 100 µM | TGI [35]: > 100 µM | TGI [36]: > 100 µM | TGI [37]: > 100 µM | TGI [38]: > 100 µM | TGI [39]: > 100 µM | TGI [56]: > 100 µM | TGI [40]: > 100 µM | TGI [41]: > 100 µM | TGI [42]: 85.9 µM | TGI [43]: > 100 µM | TGI [57]: > 100 µM | TGI [44]: > 100 µM | TGI [45]: > 100 µM | TGI [47]: > 100 µM | TGI [48]: > 100 µM | TGI [49]: > 100 µM | TGI [50]: > 100 µM | TGI [58]: > 100 µM | TGI [51]: > 100 µM
